Measurements from PubChem BioAssay (NCI).
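Grown in 96-well plates, cells were treated for 48 hours with each compound at five concentrations. Insufficient inhibition: endpoint recorded as highest concentration tested. GI50: concentration for 50% inhibition of growth. The concentration for full growth arrest is given as TGI.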

Assays:
Assay in all cases: NCI tumour cell line growth inhibition, 48 h
[1] = test system: 786-0 renal
[2] = test system: A498 renal
[3] = test system: A549 NSCLC
[4] = test system: ACHN renal
[5] = test system: BT-549 breast
[6] = test system: CAKI-1 renal
[7] = test system: CCRF-CEM leukemia
[8] = test system: COLO 205 colon
[9] = test system: DU-145 prostate
[10] = test system: EKVX NSCLC
[11] = test system: HCC-2998 colon
[12] = test system: HCT-116 colon
[13] = test system: HCT-15 colon
[14] = test system: HL-60(TB) leukemia
[15] = test system: HOP-62 NSCLC
[16] = test system: HS 578T breast
[17] = test system: HT29 colon
[18] = test system: IGROV1 ovarian
[19] = test system: K-562 leukemia
[20] = test system: KM12 colon
[21] = test system: LOX IMVI melanoma
[22] = test system: M14 melanoma
[23] = test system: MALME-3M melanoma
[24] = test system: MCF7 breast
[25] = test system: MDA-MB-231 breast
[26] = test system: MDA-MB-435
[27] = test system: MOLT-4 leukemia
[28] = test system: NCI-H226 lung
[29] = test system: NCI-H23 lung
[30] = test system: NCI-H460 lung
[31] = test system: NCI-H522 lung
[32] = test system: NCI/ADR-RES ovarian
[33] = test system: OVCAR-3 ovarian
[34] = test system: OVCAR-4 ovarian
[35] = test system: OVCAR-5 ovarian
[36] = test system: OVCAR-8 ovarian
[37] = test system: PC-3 prostate
[38] = test system: RPMI-8226 leukemia
[39] = test system: RXF 393 renal
[40] = test system: SF-268 CNS
[41] = test system: SF-295 CNS
[42] = test system: SF-539 CNS
[43] = test system: SK-MEL-2 melanoma
[44] = test system: SK-MEL-28 melanoma
[45] = test system: SK-MEL-5 melanoma
[46] = test system: SK-OV-3 ovarian
[47] = test system: SN12C renal
[48] = test system: SNB-19 CNS
[49] = test system: SNB-75 CNS
[50] = test system: SR leukemia
[51] = test system: SW-620 colon
[52] = test system: T-47D breast
[53] = test system: TK-10 renal
[54] = test system: U251 CNS
[55] = test system: UACC-257 melanoma
[56] = test system: UACC-62 melanoma
[57] = test system: UO-31 renal
[58] = test system: HOP-92 NSCLC

COc1ccc(/C=C/C(=O)c2c(O)c(C)c(O)c3c2OC2=CC(O)=C(C(C)=O)C(=O)[C@]23C)cc1 gave a GI50 [1] of 2.44 µM, a TGI [1] of 7.59 µM and a GI50 [2] of 0.77 µM. It also gave a TGI [2] of 2.98 µM, a GI50 [3] of 1.33 µM and a TGI [3] of 7.26 µM. It also gave a GI50 [4] of 1.03 µM, a TGI [4] of 10.4 µM and a GI50 [5] of 0.931 µM. For the same compound, the TGI [5] was 5.26 µM, the GI50 [6] was 0.694 µM and the TGI [6] was 8.19 µM. For the same compound, the GI50 [7] was 0.702 µM, the TGI [7] was 9.97 µM and the GI50 [8] was 1.93 µM. The TGI [8] was 4.54 µM, the GI50 [9] was 1.23 µM and the TGI [9] was 7.84 µM. The GI50 [10] was 0.676 µM, the TGI [10] was 5.32 µM and the GI50 [11] was 1.96 µM. The TGI [11] was 5.12 µM, the GI50 [12] was 0.61 µM and the TGI [12] was 2.49 µM. The GI50 [13] was 0.706 µM, the TGI [13] was 3.48 µM and the GI50 [14] was 0.603 µM. It also gave a TGI [14] of 5.85 µM, a GI50 [15] of 1.92 µM and a TGI [15] of 6.13 µM. It also gave a GI50 [16] of 2.9 µM, a TGI [16] of 8.76 µM and a GI50 [17] of 0.86 µM. It also gave a TGI [17] of 4.33 µM, a GI50 [18] of 0.932 µM and a TGI [18] of 8.02 µM. It also gave a GI50 [19] of 0.627 µM, a TGI [19] greater than 17.5 µM and a GI50 [20] of 1.04 µM. It also gave a TGI [20] of 5.9 µM, a GI50 [21] of 1.8 µM and a TGI [21] of 4.57 µM. It also gave a GI50 [22] of 0.925 µM, a TGI [22] of 4.82 µM and a GI50 [23] of 2.23 µM. It also gave a TGI [23] of 5.22 µM, a GI50 [24] of 0.61 µM and a TGI [24] of 3.8 µM. For the same compound, the GI50 [25] was 1.04 µM, the TGI [25] was 5.66 µM and the GI50 [26] was 1.92 µM. It also gave a TGI [26] of 4.11 µM, a GI50 [27] of 0.698 µM and a TGI [27] greater than 17.5 µM. For the same compound, the GI50 [28] was 2.61 µM, the TGI [28] was 6.75 µM and the GI50 [29] was 0.598 µM. The TGI [29] was 3.13 µM, the GI50 [30] was 0.898 µM and the TGI [30] was 3.71 µM. It also gave a GI50 [31] of 0.511 µM, a TGI [31] of 2.33 µM and a GI50 [32] of 0.956 µM. The TGI [32] was 4.58 µM, the GI50 [33] was 0.649 µM and the TGI [33] was 2.83 µM. For the same compound, the GI50 [34] was 2.21 µM, the TGI [34] was 10 µM and the GI50 [35] was 4.2 µM. The TGI [35] was greater than 17.5 µM, the GI50 [36] was 0.631 µM and the TGI [36] was 2.35 µM. For the same compound, the GI50 [37] was 0.611 µM, the TGI [37] was 2.34 µM and the GI50 [38] was 0.596 µM. For the same compound, the TGI [38] was 1.88 µM, the GI50 [39] was 1.96 µM and the TGI [39] was 4.99 µM. For the same compound, the GI50 [40] was 0.871 µM, the TGI [40] was 4.72 µM and the GI50 [41] was 0.821 µM. For the same compound, the TGI [41] was 5.11 µM, the GI50 [42] was 2.71 µM and the TGI [42] was 6.44 µM. For the same compound, the GI50 [43] was 0.961 µM, the TGI [43] was 3.72 µM and the GI50 [44] was 1.15 µM. For the same compound, the TGI [44] was 4.72 µM, the GI50 [45] was 1.29 µM and the TGI [45] was 3.61 µM. The GI50 [46] was 1.79 µM, the TGI [46] was 7.05 µM and the GI50 [47] was 0.603 µM. It also gave a TGI [47] of 2.48 µM, a GI50 [48] of 1.56 µM and a TGI [48] of 7.8 µM. It also gave a GI50 [49] of 2.8 µM, a TGI [49] of 5.95 µM and a GI50 [50] of 1.17 µM. It also gave a TGI [50] greater than 17.5 µM, a GI50 [51] of 0.659 µM and a TGI [51] of 3.79 µM. For the same compound, the GI50 [52] was 0.521 µM, the TGI [52] was 2.66 µM and the GI50 [53] was 0.597 µM. For the same compound, the TGI [53] was 5.1 µM, the GI50 [54] was 0.801 µM and the TGI [54] was 4.21 µM. It also gave a GI50 [55] of 3.11 µM, a TGI [55] of 10 µM and a GI50 [56] of 0.891 µM. For the same compound, the TGI [56] was 3.48 µM, the GI50 [57] was 3.45 µM and the TGI [57] was 10.6 µM.

Work on C=C1C(O)C2C(=C(CC(C)C)C13CC3)C(=O)C(C)(C)C2O (stereo not given) yielded a GI50 [1] greater than 100 µM, a TGI [1] greater than 100 µM and a GI50 [2] greater than 100 µM. It also gave a TGI [2] greater than 100 µM, a GI50 [3] greater than 100 µM and a TGI [3] greater than 100 µM. It also gave a GI50 [4] greater than 100 µM, a TGI [4] greater than 100 µM and a GI50 [5] greater than 100 µM. The TGI [5] was greater than 100 µM, the GI50 [6] was greater than 100 µM and the TGI [6] was greater than 100 µM. The GI50 [7] was greater than 100 µM, the TGI [7] was greater than 100 µM and the GI50 [8] was greater than 100 µM. For the same compound, the TGI [8] was greater than 100 µM, the GI50 [9] was greater than 100 µM and the TGI [9] was greater than 100 µM. For the same compound, the GI50 [10] was greater than 100 µM, the TGI [10] was greater than 100 µM and the GI50 [12] was greater than 100 µM. The TGI [12] was greater than 100 µM, the GI50 [13] was greater than 100 µM and the TGI [13] was greater than 100 µM. It also gave a GI50 [15] greater than 100 µM, a TGI [15] greater than 100 µM and a GI50 [58] greater than 100 µM. The TGI [58] was greater than 100 µM, the GI50 [16] was greater than 100 µM and the TGI [16] was greater than 100 µM. For the same compound, the GI50 [17] was greater than 100 µM, the TGI [17] was greater than 100 µM and the GI50 [18] was greater than 100 µM. For the same compound, the TGI [18] was greater than 100 µM, the GI50 [19] was 0.859 µM and the TGI [19] was greater than 100 µM. It also gave a GI50 [20] greater than 100 µM, a TGI [20] greater than 100 µM and a GI50 [21] greater than 100 µM. The TGI [21] was greater than 100 µM, the GI50 [22] was greater than 100 µM and the TGI [22] was greater than 100 µM. For the same compound, the GI50 [23] was 89.9 µM, the TGI [23] was greater than 100 µM and the GI50 [24] was greater than 100 µM. It also gave a TGI [24] greater than 100 µM, a GI50 [25] greater than 100 µM and a TGI [25] greater than 100 µM. It also gave a GI50 [26] greater than 100 µM, a TGI [26] greater than 100 µM and a GI50 [28] greater than 100 µM. The TGI [28] was greater than 100 µM, the GI50 [29] was greater than 100 µM and the TGI [29] was greater than 100 µM. For the same compound, the GI50 [30] was greater than 100 µM, the TGI [30] was greater than 100 µM and the GI50 [31] was greater than 100 µM. The TGI [31] was greater than 100 µM, the GI50 [32] was greater than 100 µM and the TGI [32] was greater than 100 µM. The GI50 [33] was 75.8 µM, the TGI [33] was greater than 100 µM and the GI50 [34] was greater than 100 µM. For the same compound, the TGI [34] was greater than 100 µM, the GI50 [35] was greater than 100 µM and the TGI [35] was greater than 100 µM. It also gave a GI50 [36] greater than 100 µM, a TGI [36] greater than 100 µM and a GI50 [37] greater than 100 µM. For the same compound, the TGI [37] was greater than 100 µM, the GI50 [38] was 42.1 µM and the TGI [38] was greater than 100 µM. It also gave a GI50 [39] greater than 100 µM, a TGI [39] greater than 100 µM and a GI50 [40] greater than 100 µM. It also gave a TGI [40] greater than 100 µM, a GI50 [41] greater than 100 µM and a TGI [41] greater than 100 µM. It also gave a GI50 [42] greater than 100 µM, a TGI [42] greater than 100 µM and a GI50 [43] greater than 100 µM. For the same compound, the TGI [43] was greater than 100 µM, the GI50 [44] was greater than 100 µM and the TGI [44] was greater than 100 µM. It also gave a GI50 [45] greater than 100 µM, a TGI [45] greater than 100 µM and a GI50 [46] greater than 100 µM. It also gave a TGI [46] greater than 100 µM, a GI50 [48] greater than 100 µM and a TGI [48] greater than 100 µM. The GI50 [50] was greater than 100 µM, the TGI [50] was greater than 100 µM and the GI50 [51] was greater than 100 µM. It also gave a TGI [51] greater than 100 µM, a GI50 [52] greater than 100 µM and a TGI [52] greater than 100 µM. It also gave a GI50 [53] greater than 100 µM, a TGI [53] greater than 100 µM and a GI50 [54] greater than 100 µM. For the same compound, the TGI [54] was greater than 100 µM, the GI50 [55] was greater than 100 µM and the TGI [55] was greater than 100 µM. It also gave a GI50 [56] greater than 100 µM, a TGI [56] greater than 100 µM and a GI50 [57] greater than 100 µM. It also gave a TGI [57] greater than 100 µM.
